According to ChEMBL document CHEMBL4651402, “Screening of ~5500 FDA-approved drugs and clinical candidates for anti-SARS-CoV-2 activity” (2021):

Test system: SARS-CoV-2
Test: microbe, parasite or virus in culture
Conditions: Severe acute respiratory syndrome coronavirus 2, Vero C1008, 48 h

Row | SMILES | IC50 [µM] | IC50 (read-out: pIC50 (converted)) [µM]
1 | CCN1CCC[C@H]1CNC(=O)c1c(OC)ccc(Br)c1OC [REMOXIPRIDE] | > 20 | > 20
2 | COc1ccc(C[C@H]2NC[C@H](O)[C@H]2OC(C)=O)cc1 [ANISOMYCIN] | > 20 | > 20
3 | C[C@H](NC(=O)C(C)(C)Oc1ccc(C(F)(F)F)cn1)[C@@H](Cc1ccc(Cl)cc1)c1cccc(C#N)c1 [TARANABANT] | > 20 | > 20
4 | Clc1cccc(Cl)c1NC1=NCCN1 [CLONIDINE] | > 20 | > 20
5 | OC[C@H]1O[C@H](O[C@H]2[C@H](O)[C@@H](O)[C@H](O)O[C@@H]2CO)[C@H](O)[C@@H](O)[C@@H]1O [MALTOSE] | > 20 | > 20
6 | COc1ccccc1Oc1c(NS(=O)(=O)c2ccc(C(C)(C)C)cc2)nc(-c2ncccn2)nc1OCCO [BOSENTAN] | > 20 | > 20
7 | CCOC(=O)Cc1ccc(-c2ccccc2)cc1 | > 20 | > 20
8 | CC12CCC(O)CC1=CCC1C2CCC2(C)C(O)CCC12 (stereo not given) | > 20 | > 20
9 | O=C(O)CCCCCCCC(=O)O [AZELAIC ACID] | > 20 | > 20
10 | O=C(NC(CO)C(O)c1ccc([N+](=O)[O-])cc1)C(Cl)Cl (stereo not given) | > 20 | > 20
11 | CCCCCOC(=O)Nc1nc(=O)n([C@@H]2O[C@H](C)[C@@H](O)[C@H]2O)cc1F [CAPECITABINE] | > 20 | > 20
12 | CCCCc1nc2cc(/C=C/C(=O)NO)ccc2n1CCN(CC)CC [PRACINOSTAT] | > 20 | > 20
13 | O=C(OCc1ccccc1)c1ccccc1 [BENZYL BENZOATE] | > 20 | > 20
14 | CCC(=O)C(CCN1CCCCC1)(c1ccccc1)c1ccccc1 [NORPIPANONE] | > 20 | > 20
15 | CC(C)=CC1C(CO)C1(C)C (stereo not given) [CHRYSANTHEMYL ALCOHOL] | > 20 | > 20
16 | NCC(O)CC(=O)O (stereo not drawn) [GAMMA-AMINO-BETA-HYDROXYBUTYRIC ACID] | > 20 | > 20
17 | O=C1c2ccccc2C(=O)C1c1ccc(Br)cc1 [BROMINDIONE] | > 20 | > 20
18 | COc1ccccc1OC(=O)C(C)c1ccc(CC(C)C)cc1 (stereo not given) | > 20 | > 20
19 | CO/N=C(\C(=O)N[C@@H]1C(=O)N2C(C(=O)O)=C(COC(C)=O)CS[C@H]12)c1csc(N)n1 [CEFOTAXIME] | > 20 | > 20
20 | CCc1nc(C)ccc1O [EMOXYPINE] | > 20 | > 20
21 | CC(C)c1c(C(=O)Nc2ccccc2)c(-c2ccccc2)c(-c2ccc(F)cc2)n1CC[C@@H](O)C[C@@H](O)CC(=O)O [ATORVASTATIN] | > 20 | > 20
22 | CC12CCC3c4ccc(OC(=O)c5ccccc5)cc4CCC3C1CCC2O (stereo not given) | > 20 | > 20
23 | CC(C)NCC(O)c1ccccc1Cl (stereo not given) [CLORPRENALINE] | > 20 | > 20
24 | CC(=O)SCCC(=O)N1C(C)CCCC1C(=O)O (stereo not given) | > 20 | > 20
25 | C=CC[C@]1(O)CC[C@H]2[C@@H]3CCC4=CC(=O)CCC4=C3C=C[C@@]21C [ALTRENOGEST] | > 20 | > 20

Row | SMILES | IC50 [µM] | IC50 (read-out: pIC50 (converted)) [µM]
26 | NS(=O)(=O)NC[C@H]1COc2cc(Cl)ccc2O1 [JNJ-26489112] | > 20 | > 20
27 | Clc1ccc(C2(Cn3cncn3)OCCO2)c(Cl)c1 [AZACONAZOLE] | > 20 | > 20
28 | Oc1ccc(OCc2ccccc2)cc1 [MONOBENZONE] | > 20 | > 20
29 | COCCOCCOCCOCCOC(=O)OC[n+]1ccc(N/C(=N/CCCCCCOc2ccc(Cl)cc2)NC#N)cc1 | > 20 | > 20
30 | Cc1nc2n(c(=O)c1CCN1CCC(C(=O)c3ccc(F)cc3)CC1)CCS2 [SETOPERONE] | > 20 | > 20
31 | O=C(O)c1cc(/N=N/c2ccc(S(=O)(=O)Nc3ccccn3)cc2)ccc1O [SULFASALAZINE] | > 20 | > 20
32 | C[N+](C)(C)CC(O)CC(=O)[O-] (stereo not given) [CARNITINE] | > 20 | > 20
33 | CCC(=O)c1ccc(OCC(O)CN2CCN(c3ccccc3)CC2)cc1 (stereo not given) | > 20 | > 20
34 | O=C(O)[C@H]1O[C@@H](Oc2cc3oc(-c4ccccc4)cc(=O)c3c(O)c2O)[C@H](O)[C@@H](O)[C@@H]1O [BAICALIN] | > 20 | > 20
35 | Nc1nc2c(ncn2COCCO)c(=O)[nH]1 [ACYCLOVIR] | > 20 | > 20
36 | CSc1ccc2c(c1)C(N1CCN(C)CC1)Cc1ccccc1S2 (stereo not given) [METITEPINE] | > 20 | > 20
37 | NCCC(O)C(=O)N[C@H]1C[C@@H](N)[C@H](O[C@H]2O[C@H](CN)[C@@H](O)[C@H](O)[C@H]2O)[C@@H](O)[C@@H]1O[C@H]1O[C@H](CO)[C@@H](O)[C@H](N)[C@H]1O (stereo not given in full) | > 20 | > 20
38 | O=C(O)COc1ccc(C(=O)c2cccs2)c(Cl)c1Cl | > 20 | > 20
39 | COc1ccc(OC)c(C(O)C(C)N)c1 (stereo not given) [METHOXAMINE] | > 20 | > 20
40 | O=C1C(Cl)=C(Cl)C(=O)C(Cl)=C1Cl [CHLORANIL] | > 20 | > 20
41 | CCOC(=O)NNc1nncc2ccccc12 [TODRALAZINE] | > 20 | > 20
42 | c1ccc(C(CC2=NCCN2)c2ccccn2)cc1 (stereo not given) [MIDAGLIZOLE] | > 20 | > 20
43 | O=C(CCCN1CCC(C(=O)c2ccc(Cl)cc2)CC1)c1ccc(F)cc1 [CLOROPERONE] | > 20 | > 20
44 | NC(=O)c1ccc[n+]([C@@H]2O[C@H](COP(=O)([O-])OP(=O)(O)OC[C@H]3O[C@@H](n4cnc5c(N)ncnc54)[C@H](O)[C@@H]3O)[C@@H](O)[C@H]2O)c1 [NADIDE] | > 20 | > 20
45 | O=C1[C@H]2CCCC[C@H]2C(=O)N1CCCCN1CCN(c2nsc3ccccc23)CC1 [PEROSPIRONE] | > 20 | > 20
46 | Nc1ccc(S(=O)(=O)Nc2ccc(Cl)nn2)cc1 [SULFACHLORPYRIDAZINE] | > 20 | > 20
47 | Cc1ncc(CO)c(CN)c1O [PYRIDOXAMINE] | > 20 | > 20
48 | c1ccc2ncccc2c1 [QUINOLINE] | > 20 | > 20
49 | COc1ccc2c3c1O[C@H]1[C@@H](O)CCC4[C@@H](C2)N(C)CC[C@@]341 (stereo not given in full) | > 20 | > 20
50 | O=C(NC[C@H](O)CN1CCc2ccccc2C1)c1cc(NC2COC2)ncn1 | > 20 | > 20

Row | SMILES | IC50 [µM] | IC50 (read-out: pIC50 (converted)) [µM]
51 | CN(C)[C@@H](c1cccc(O)c1)[C@H]1CCCC[C@H]1O [CIRAMADOL] | > 20 | > 20
52 | Cc1ccc(C(=O)c2ccc(CC(=O)O)n2C)cc1 [TOLMETIN] | > 20 | > 20
53 | Cc1c(-c2ccccc2)oc2c(C(=O)OCCN3CCCCC3)cccc2c1=O [FLAVOXATE] | > 20 | > 20
54 | COc1ccc2[nH]c([S+]([O-])Cc3ncc(C)c(OC)c3C)nc2c1 (stereo not given) [OMEPRAZOLE] | > 20 | > 20
55 | Cc1ccc(/C(=C\CN2CCCC2)c2cccc(/C=C/C(=O)O)n2)cc1 [ACRIVASTINE] | > 20 | > 20
56 | Cc1ccc2c(c1)CC(=O)c1cc(C(C)C(=O)O)ccc1O2 (stereo not given) [BERMOPROFEN] | > 20 | > 20
57 | Cc1cc(O)ccc1Cl [CHLOROCRESOL] | > 20 | > 20
58 | CC(=O)c1cc2c(o1)C(=O)c1ccccc1C2=O [NAPABUCASIN] | > 20 | > 20
59 | Cc1cnc(NC(=O)Nc2cc(Br)c(C)cc2OC[C@@H]2CNCCO2)cn1 [RABUSERTIB] | > 20 | > 20
60 | CCC1(CC)C(=O)NC(=O)NC1=O [BARBITAL] | > 20 | > 20
61 | CC(C)(C)c1ccc(OC(=O)[C@H]2CC[C@H](CNC(=N)N)CC2)cc1 [BATEBULAST] | > 20 | > 20
62 | N=C(N)NC(=O)c1nc(Cl)c(N)nc1N [AMILORIDE] | > 50.1 | > 50.1
63 | COc1cc([C@@H]2c3cc4c(cc3[C@@H](O[C@@H]3O[C@@H]5CO[C@@H](c6cccs6)O[C@H]5[C@H](O)[C@H]3O)[C@H]3COC(=O)[C@H]23)OCO4)cc(OC)c1O [TENIPOSIDE] | > 20 | > 20
64 | CNCCC(Oc1ccccc1OC)c1ccccc1 (stereo not given) [NISOXETINE] | > 20 | > 20
65 | Cc1nc(N)nc(N)c1-c1ccc(Cl)c(Cl)c1 [METOPRINE] | > 20 | > 20
66 | CC(CN1CCN(CCOCCO)CC1)CN1c2ccccc2Sc2ccccc21 (stereo not given) [DIXYRAZINE] | > 20 | > 20
67 | O=C(/C=C/c1ccc(O)cc1)c1ccc(O)cc1O [ISOLIQUIRITIGENIN] | > 20 | > 20
68 | C[N+](C)(Cc1ccc(NC(=O)c2ccc(Cl)c(Cl)c2)cc1)C1CCOCC1 [JNJ-17166864 CATION] | > 20 | > 20
69 | CN(C)CCC=C1c2ccccc2C=Cc2ccccc21 [CYCLOBENZAPRINE] | > 20 | > 20
70 | CC(C)c1nc(-c2ccccc2)cc(-c2ccc(F)cc2)c1/C=C/[C@@H]1C[C@@H](O)CC(=O)O1 [GLENVASTATIN] | > 20 | > 20
71 | CCOC(=O)Nc1ccc(SCC2CO[C@](Cn3ccnc3)(c3ccc(Cl)cc3Cl)O2)cc1 (stereo not given in full) | > 20 | > 20
72 | CC(C)(C)C(=O)OCOC(=O)[C@@H]1N2C(=O)[C@@H](NC(=O)[C@H](N)c3ccccc3)[C@H]2SC1(C)C [PIVAMPICILLIN] | > 20 | > 20
73 | NCC1CCC(C(=O)Oc2ccc(CCC(=O)O)cc2)CC1 (stereo not given) | > 20 | > 20
74 | CCN(CC)CCNC(=O)COc1ccc(Cl)cc1 [CLOFEXAMIDE] | > 20 | > 20
75 | COc1ccc(CCC(=O)c2c(O)cc(O[C@@H]3O[C@H](CO)[C@@H](O)[C@H](O)[C@H]3O[C@@H]3O[C@@H](C)[C@H](O)[C@@H](O)[C@H]3O)cc2O)cc1O [NEOHESPERIDIN DIHYDROCHALCONE] | > 20 | > 20
